Where “and” joins values, the source holds several entries; their conditions need not be identical. Equal values may be shown once.
Test system: 855422-203-R-J1-PDC complex spheroid viability
Assay: Anticancer human tumor 855422-203-R-J1-PDC patient-derived bladder carcinoma cell line growth inhibition [POLQ]
Conditions: for viability, T/C: stronger effect = lower value
Experimental: Multicellular complex tumor spheroid response to Polymerase (POL) inhibitors (novobiocin, ART-558, RP6685) in combination with a variety of drugs and investigational agents in selected tumor cell lines
The POL inhibitors (novobiocin, ART-558, and RP6685) were evaluated both individually and in combination with standard of care and investigational anticancer small molecules within a complex spheroid model of solid tumors. . Complex spheroids include a stromal component modeled by human endothelial cells (HUVEC) and fibroblasts modeled by human mesenchymal stem cells (MSCs). The concentration ranges selected for each drug and investigational agent were based upon clinically achievable concentrations if the clinical Cmax of the agent was known.
Compounds. The drugs and investigational agents: novobiocin (NSC847541), ART-558 (NSC835418), RP-6685 (NSC848927), peposertib (NSC802822), ceralasertib (NSC780249), elimusertib (NSC800525), camonsertib (NSC841442), AZD-1390 (NSC803789), olaparib (NSC753686), talazoparib (NSC767125), rucaparib (NSC756644), sotorasib (NSC818433), MRTX-1133 (NSC836407), SN-38 (NSC673596), topotecan (NSC609699), epotoside (NSC141540), doxorubicin (NSC123127), gemcitabine (NSC613327), 5-fluorouracil (NSC19893), paclitaxel (NSC125973), vemurafenib (NSC761431), MSA-2 (NSC828583), SN-011 (NSC837082), adavosertib (NSC754352), prexasertib (NSC758257), carboplatin (NSC241240) and oxaliplatin (NSC266046), were obtained from the National Cancer Institute (NCI) Developmental Therapeutics Program Chemical Repository (21). The FDA-approved anticancer drug set is available from the Developmental Therapeutics Program at https://dtp.cancer.gov/organization/dscb/obtaining/. […] The stock solutions were prepared in dimethyl sulfoxide (DMSO, Sigma-Aldrich, St. Louis, MO, cat. D2650), except for the platinum compounds which were prepared in saline (Quality Biological, Gaithersburg, MD, cat. 114-055-101), at 800-fold the tested concentration and stored at -70 degrees C prior to their use. All drugs and investigational agents were tested over a range starting from a high concentration at or near the clinical Cmax and decreasing in half-log increments. If the clinical Cmax for an agent had not been determined, the highest concentration tested was 10 microM, except for SN-38, which was tested at a high concentration of 1 microM.
Cell Culture. All cells were maintained in an incubator at 37 degrees C and 5% CO2 with 95% humidity. The PDC lines were cultured according to standard operating procedures established by the NCI PDMR (https://pdmr.cancer.gov). Table 3 of the manuscript, lists the cell lines along with the number of the three cell types plated to form the mct-spheroids and media for tumor cell growth. After thawing, all PDC lines, except 997537-175-T-J1-PDC and 415267-285-R-J2-PDC, were cultured in Matrigel-coated flasks prepared with a working solution of 1X Ham's F-12 nutrient mix, without supplementation (Thermo Fisher Scientific, cat. 11765054), 100 U/mL penicillin-streptomycin (Thermo Fisher Scientific, cat. 15140122), and 2.5% Matrigel (Corning Inc., Corning, NY, cat. 354248) for the first three passages. The two PDC lines 997537-175-T-J1-PDC and 415267-285-R-J2-PDC were cultured on uncoated flasks. The 857933-349-R-J2-PDC line was cultured in 6C/Colon 1B media containing advanced DMEM/F-12 (Thermo Fisher Scientific, cat. 12634028), 10 mM HEPES (Thermo Fisher Scientific, cat. 15630080), 1X GlutaMAX supplement (Thermo Fisher Scientific, cat. 35050061), 0.1 mg/mL primocin (InvivoGen, San Diego, CA, cat. ant-pm-2), 10% defined fetal bovine serum, heat inactivated (HyClone Laboratories Inc., Logan, UT, cat. SH30070.03HI), 50% L-WRN conditioned media (ATCC, cat. CRL-3276), 1.25 mM N-Acetyl-L-cysteine (Sigma-Aldrich, cat. A9165), 10 mM nicotinamide (Sigma-Aldrich, cat. N0636), 1X B-27 supplement (Thermo Fisher Scientific, cat. 17504044), 1X N-2 supplement (Thermo Fisher Scientific, cat. […]

[1] = compound alone, run of 01/08/2024
[2] = compound alone, run of 01/19/2024
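Further: spheroids exposed to compounds for seven days before readout.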

IC50 [2] [nM]	SMILES	viability, T/C (compound 0.00316 µM)	viability, T/C (compound 0.01 µM)	viability, T/C (compound 0.0316 µM)	viability, T/C (compound 0.1 µM)	viability, T/C (compound 0.316 µM)	viability, T/C (compound 1 µM)	IC50 (curve of compound)	viability, T/C (compound 0.00949 µM)	viability, T/C (compound 0.03 µM)	viability, T/C (compound 0.0949 µM)	viability, T/C (compound 0.3 µM)	viability, T/C (compound 0.949 µM)	viability, T/C (compound 3 µM)	viability, T/C (compound 3.16 µM)	viability, T/C (compound 10 µM)	viability, T/C (compound 0.000316 µM)	viability, T/C (compound 0.001 µM)	IC50 [1] [nM]
	C=CCn1c(=O)c2cnc(Nc3ccc(N4CCN(C)CC4)cc3)nc2n1-c1cccc(C(C)(C)O)n1	100% and 104% and 107%	100% and 120% and 111%	106% and 108% and 122%	90.9% and 98.5% and 98%	118% and 116% and 99.9%	94.8% and 187% and 136%	> 1000 nM											
	CC(=O)O[C@H]1C(=O)[C@@]2(C)[C@H]([C@H](OC(=O)c3ccccc3)[C@]3(O)C[C@H](OC(=O)[C@H](O)[C@@H](NC(=O)c4ccccc4)c4ccccc4)C(C)=C1C3(C)C)[C@]1(OC(C)=O)CO[C@@H]1C[C@@H]2O							< 9.49 nM	13.3% and 11.4% and 6.22%	9.21% and 8.32% and 5.81%	10.3% and 7.91% and 5.5%	7.66% and 7.33% and 5.13%	6.14% and 7.78% and 6.34%	7.69% and 7.6% and 7.01%					
	CCCS(=O)(=O)Nc1ccc(F)c(C(=O)c2c[nH]c3ncc(-c4ccc(Cl)cc4)cc23)c1F			106% and 96.3% and 94.9%	97.9% and 102% and 107%	117% and 97.8% and 105%	96.7% and 100% and 109%	6080 nM and 5930 nM and 5810 nM							113% (2×) and 108%	7.16% and 6.83% and 1.07%			
	CC[C@@]1(O)C(=O)OCc2c1cc1n(c2=O)Cc2cc3c(CN(C)C)c(O)ccc3nc2-1	105% and 98.4% and 122%	90.4% and 90% and 93.3%	54.6% and 99.2% and 57.2%	10.1% and 17.6% and 11.1%			35.9 nM and 63.1 nM and 37.1 nM									113% and 104% and 102%	102% (2×) and 109%	
	CCc1c2c(nc3ccc(O)cc13)-c1cc3c(c(=O)n1C2)COC(=O)[C@]3(O)CC	51.3% and 111% and 38.4%	12.8% and 30.6% and 13.8%	6.94% and 13.9% and 6.52%	5.24% and 8.86% and 5.52%	3.34% and 4.22% (2×)	1.24% and 3.11% and 2.06%	3.29 nM and 7.7 nM and < 3.16 nM											
	CNCc1ccc(-c2[nH]c3cc(F)cc4c3c2CCNC4=O)cc1			98.8% and 101% and 112%	98.1% and 100% and 101%	114% and 108% and 99.2%	115% and 103% and 99.8%	> 10000 nM							105% and 88.8% and 114%	114% and 137% and 126%			
	COC1C(OC(N)=O)C(O)C(Oc2ccc3c(O)c(NC(=O)c4ccc(O)c(CC=C(C)C)c4)c(=O)oc3c2C)OC1(C)C (stereo not given)			105% [middle of 13 runs]	108% [middle of 13 runs]	111% [middle of 13 runs]	106% [middle of 13 runs]								104% [middle of 13 runs]				> 10000
	COc1cc(C2c3cc4c(cc3C(OC3OC5COC(C)OC5C(O)C3O)C3COC(=O)C23)OCO4)cc(OC)c1O (stereo not given)			99.8% and 116% and 97.3%	92.7% and 114% and 91%	31.5% and 78.4% and 34%	9.39% and 19.9% and 12.1%	224 nM and 553 nM and 229 nM							7.03% and 8.72% and 9.59%	4.41% and 6.81% and 5.26%			
	COc1cccc(OCCCN)c1-c1cc(Nc2cnc(C#N)cn2)n[nH]1	108% and 98.1% and 104%	86.8% and 138% and 132%	12.2% and 23.8% and 37.9%	9.96% and 13.6% and 17.5%	5.57% and 7.75% and 6.55%	4.87% and 6.23% and 5.82%	17.7 nM and 23 nM and 26.6 nM											
	COc1cccc2c1C(=O)c1c(O)c3c(c(O)c1C2=O)CC(O)(C(=O)CO)CC3OC1CC(N)C(O)C(C)O1 (stereo not given)			20.9% and 28.2% and 13.1%	9.22% and 14.2% and 10.2%	3.11% and 2.95% and 2.47%	0.45% and 0.73% and 0.38%	< 31.6 nM							0.69% and 0.96% and 0.43%	3.06% and 2.86% and 1.27%			
> 10000	Cc1cccc(N(C)C(=O)C2C(O)CCN2c2nc(C)cc(C(F)(F)F)c2C#N)c1 (stereo not given)			107% [middle of 13 runs]		106% [middle of 13 runs]	102% [middle of 13 runs]								102% [middle of 13 runs]	103% [middle of 13 runs]			> 10000
	Cn1ncnc1[C@H]1c2n[nH]c(=O)c3cc(F)cc(c23)N[C@@H]1c1ccc(F)cc1	108% and 105% and 111%	108% and 122% and 110%	102% and 93.4% and 118%	96.6% and 134% and 88.6%			> 100 nM									108% and 99.8% and 105%	97% and 116% and 97.1%	
> 10000	Nc1ccc(C#CCN(C(=O)Cc2ncc(C(F)(F)F)cc2C(F)(F)F)c2ccc(F)cc2)nn1			101% [middle of 13 runs]	104% [middle of 13 runs]	107% [middle of 13 runs]									95.7% [middle of 13 runs]	90.4% [middle of 13 runs]			
	Nc1ccn(C2OC(CO)C(O)C2(F)F)c(=O)n1 (stereo not given)			81.1% and 75.1% and 69.6%	41.7% and 19.3% and 37.9%	17.7% and 14.3% and 12.9%	13.3% and 13.5% and 11.3%	77.7 nM and 53.1 nM and 64.2 nM							7.69% and 9.12% and 7.82%	6.31% and 7.6% and 6.51%			
	O=C(c1cc(Cc2n[nH]c(=O)c3ccccc23)ccc1F)N1CCN(C(=O)C2CC2)CC1			109% and 103% and 94%	107% and 106% and 112%	92.1% and 100% and 112%	108% and 103% and 98.3%	> 10000 nM							106% and 98.1% and 124%	82.5% and 70% and 121%			
	O=c1[nH]cc(F)c(=O)[nH]1			116% and 95.4% and 99.2%	105% and 104% and 102%	61.8% and 118% and 55.4%	32.8% and 67% and 34.3%	507 nM and 2200 nM and 405 nM							29.6% and 40.2% and 26.3%	23.3% and 44.2% and 22.9%			

Reference: PubChem BioAssay AID1963838 (Molecular Pharmacology Branch, DTP, NCI, 2024)
